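Interpolation was linear, between the two tested concentrations surrounding the appropriate level; five concentrations were tested over 48 hours in 96-well plates. GI50 is the concentration that inhibits growth by half.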 Calls of active or inactive are those of the source. No stated cut-off is given here; in the data, active = GI50 up to about 1.1 µM and inactive = higher.
Key:
Assay in all cases: NCI tumour cell line growth inhibition, 48 h
[1] = tested on: SF-295
[2] = tested on: SK-MEL-5
[3] = tested on: SNB-75
[4] = tested on: Malme-3M
[5] = tested on: A498
[6] = tested on: LXFL 529
[7] = tested on: HOP-92
[8] = tested on: HL-60
[9] = tested on: UO-31
[10] = tested on: NCI-H226
[11] = tested on: M14
[12] = tested on: HT-29
[13] = tested on: U-251
[14] = tested on: EKVX
[15] = tested on: SN12C
[16] = tested on: HOP-62
[17] = tested on: KM12
[18] = tested on: MCF7
[19] = tested on: BT-549
[20] = tested on: OVCAR-5

Measured: GI50

CC(CC(=O)N1C(=O)C(C)(C)[C@@H](O)[C@H]1CC(C)C(Cl)(Cl)Cl)C(Cl)(Cl)Cl (some centres undefined)
inactive: [1] > 100 µM | [2] > 100 µM | [3] > 100 µM | [4] > 100 µM | [5] > 100 µM | [6] > 100 µM | [7] > 100 µM | [8] > 100 µM | [9] > 100 µM | [10] > 100 µM | [11] > 100 µM | [12] > 100 µM | [13] > 100 µM | [14] > 100 µM | [15] > 100 µM | [16] > 100 µM | [17] > 100 µM

CC(C)c1ccc(C2NC(S)=NC3=C2c2ccccc2C3=O)cc1 (centres undefined)
inactive: [1] 20.5 µM | [18] 10.2 µM | [2] 20.1 µM | [3] 15.7 µM | [4] 26.2 µM | [19] 17.1 µM | [5] 36.7 µM | [6] 38.3 µM | [20] 34 µM | [7] 22.3 µM | [8] 8.75 µM | [9] 21.5 µM | [10] 34.4 µM | [11] 28 µM | [12] 25.5 µM | [13] 26.7 µM | [14] 33.4 µM | [15] 24.7 µM | [16] 25.8 µM | [17] 27.4 µM

CCOc1ccc(C2=NN(CC)C(=O)C(C3C(=O)N(c4ccccc4)N=C3C)C2)cc1 (centres undefined)
inactive: [1] > 100 µM | [2] > 100 µM | [4] > 100 µM | [5] > 100 µM | [6] > 100 µM | [20] > 100 µM | [7] > 100 µM | [8] > 100 µM | [9] > 100 µM | [10] > 100 µM | [11] > 100 µM | [12] > 100 µM | [13] > 100 µM | [14] > 100 µM | [16] > 100 µM | [17] > 100 µM

Cc1cn(C2CC(OC3CCCCO3)C(CO)O2)c(=O)[nH]c1=O (centres undefined)
inactive: [1] > 100 µM | [4] > 100 µM | [5] > 100 µM | [6] > 100 µM | [20] > 100 µM | [7] > 100 µM | [8] > 100 µM | [9] > 100 µM | [10] > 100 µM | [11] > 100 µM | [12] > 100 µM | [13] > 100 µM | [14] > 100 µM | [15] > 100 µM | [16] > 100 µM | [17] > 100 µM

CC(C)(C)NC(=O)NC12CC3CC(CC(F)(C3)C1)C2
inactive: [3] 52.7 µM | [4] > 100 µM | [5] > 100 µM | [6] > 100 µM | [20] > 100 µM | [7] > 100 µM | [8] > 100 µM | [9] > 100 µM | [11] > 100 µM | [12] > 100 µM | [13] > 100 µM | [14] > 100 µM | [16] > 100 µM | [17] > 100 µM

O=C(CCc1n[nH]c(=S)o1)Nc1cc(Cl)ccc1Cl
inactive: [1] > 100 µM | [2] > 100 µM | [3] > 100 µM | [4] > 100 µM | [5] > 100 µM | [6] 76.4 µM | [20] > 100 µM | [7] > 100 µM | [8] 30.5 µM | [9] > 100 µM | [10] > 100 µM | [11] > 100 µM | [12] 52.8 µM | [13] 34.4 µM | [14] > 100 µM | [15] > 100 µM | [16] > 100 µM | [17] > 100 µM

Cc1nccc2c1cnc1ccnn12
inactive: [2] > 100 µM | [3] > 100 µM | [4] > 100 µM | [5] > 100 µM | [6] > 100 µM | [20] > 100 µM | [7] > 100 µM | [8] > 100 µM | [9] > 100 µM | [10] > 100 µM | [11] > 100 µM | [12] > 100 µM | [13] > 100 µM | [14] 67.1 µM | [15] > 100 µM | [16] > 100 µM | [17] > 100 µM

CC12CC3C(CC1SCC(=O)O2)C3(C)C (centres undefined)
inactive: [1] > 100 µM | [2] > 100 µM | [3] > 100 µM | [4] > 100 µM | [5] 16.6 µM | [6] > 100 µM | [20] > 100 µM | [7] > 100 µM | [8] > 100 µM | [9] > 100 µM | [11] > 100 µM | [12] > 100 µM | [13] > 100 µM | [14] > 100 µM | [15] > 100 µM | [17] > 100 µM

Reference: ChEMBL document CHEMBL1201862, “PubChem BioAssay data set” (2004)
